Measured values: publication PMC7496434 (Chemmedchem, 2020)

Columns and labels:
human P2X3 receptor = target: T1, human P2X3 receptor (Homo sapiens, UniProt P56373); assay: inhibition of ATP-induced calcium influx; format: cell-based; conditions: agonist ATP at ~80% of maximal effect; read-out: 6
T1 construct: gene P2RX3; full-length receptor stably expressed in 1321 N1 astrocytoma cells; homotrimer
T1 sequence (P56373 1-397): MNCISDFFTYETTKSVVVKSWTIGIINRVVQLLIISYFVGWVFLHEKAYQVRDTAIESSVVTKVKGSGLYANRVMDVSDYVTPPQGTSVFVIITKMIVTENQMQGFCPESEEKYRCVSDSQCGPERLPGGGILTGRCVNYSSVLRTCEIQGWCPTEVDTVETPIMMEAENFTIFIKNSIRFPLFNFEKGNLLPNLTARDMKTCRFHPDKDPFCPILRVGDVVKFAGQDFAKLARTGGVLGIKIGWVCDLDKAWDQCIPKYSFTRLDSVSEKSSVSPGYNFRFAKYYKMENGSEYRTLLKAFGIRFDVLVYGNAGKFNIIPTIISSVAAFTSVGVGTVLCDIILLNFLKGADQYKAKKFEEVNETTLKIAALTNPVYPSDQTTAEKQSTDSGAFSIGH
From the text: inhibition of ATP-induced calcium influx on human P2X3 receptor

[1] = target: T2, human adenosine A3 receptor (A3AR) (Homo sapiens, UniProt P0DMS8); assay: [3H]PSB-11 radioligand competition, CHO membranes; format: binding; conditions: 0.5 nM [3H]PSB-11, 50 mM Tris-HCl pH 7.4, 23 °C, 60 min; read-out: 6
T2 construct: gene ADORA3; membrane preparations of CHO cells expressing human A3AR
T2 sequence (P0DMS8 1-318): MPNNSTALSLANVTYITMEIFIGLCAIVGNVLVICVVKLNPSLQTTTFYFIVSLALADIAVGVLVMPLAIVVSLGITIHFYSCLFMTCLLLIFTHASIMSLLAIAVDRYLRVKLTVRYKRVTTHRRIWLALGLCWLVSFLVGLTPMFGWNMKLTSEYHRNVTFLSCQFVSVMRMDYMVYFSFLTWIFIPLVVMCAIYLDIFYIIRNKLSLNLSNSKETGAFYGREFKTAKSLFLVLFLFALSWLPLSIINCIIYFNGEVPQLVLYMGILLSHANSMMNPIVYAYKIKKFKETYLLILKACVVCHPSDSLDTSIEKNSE
From the text: [3H]PSB-11 radioligand competition, CHO membranes on human adenosine A3 receptor (A3AR)

[2] = target: T3, human leukocyte elastase (HLE) (Homo sapiens, UniProt P08246); assay: chromogenic assay, […] nm; format: biochemical; conditions: 100 μM MeO-Suc-Ala-Ala-Pro-Val-pNA, sodium phosphate pH 7.8, 500 mM NaCl, 25 °C, 1.5% DMSO; read-out: 6
T3 construct: gene ELANE; enzyme stock in sodium acetate buffer
T3 sequence (P08246 30-247): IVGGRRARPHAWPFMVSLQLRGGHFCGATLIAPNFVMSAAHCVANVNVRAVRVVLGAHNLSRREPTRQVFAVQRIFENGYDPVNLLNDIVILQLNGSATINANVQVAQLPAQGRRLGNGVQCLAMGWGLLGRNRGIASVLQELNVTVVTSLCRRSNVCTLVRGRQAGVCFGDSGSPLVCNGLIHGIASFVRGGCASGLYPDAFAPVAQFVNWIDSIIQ

1321N1 astrocytoma cells = assay: cells; design: MTT viability assay, absorbance at 570 nm; conditions: Homo sapiens, 1321-N1, 72 h; read-out: Growth inhibition IC50 ± SEM
Description: MTT assays: The test compounds were investigated at human 1321 N1 astrocytoma cells using the 3‐(4,5‐dimethylthiazol‐2‐yl)‐2,5‐diphenyltetrazolium bromide (MTT) assay in order to assess their cytotoxic effects. Assays were performed as previously described by Baqi et al.30 In brief, cells were detached from the 175 cm^2 culture flasks in which they were grown and subsequently counted using a Neubauer haemocytometer. Then, they were resuspended in the growth medium. An aliquot of the cell suspension (180 μL) was added into each well of a 96‐well plate to obtain 1000 cells per well and incubated for 24 h at 37 °C, 5 % CO2, and 95 % humidity. The outer wells of the 96‐well plate were filled with 200 μL of phosphate‐buffered saline (PBS) to prevent evaporation of the fluid. After 24 h, stock solutions (10 mM) of the test compounds (archazolids) were prepared in DMSO and diluted with cell culture medium to give tenfold of the final concentrations. […] The spectrophotometric absorbance was subsequently measured at 570 nm using a FlexStation (3 multimode plate reader, molecular devices) with a filter of 690 nm. The data were analyzed using Microsoft Excel and GraphPad Prism 5. Results were evaluated by comparing the absorbance of the wells containing compound‐treated cells with the absorbance of wells containing 1 % DMSO without any drug (=100 % viability). […]

## COC1C(C)=CCCCCOC(=O)CCCC(C)=CC(O)C(C)C=C(C)C=C(C)C=CC(O)C1C (stereo not shown) [compound 6, Analogue 6]
Human P2X3 receptor
  IC50: 1190 ± 180 nM
[1]
  Ki: 436 ± 111 nM
[2]
  Ki: 13300 ± 1500 nM

## COC1C(C)=CCCCCOC(=O)CCCC(C)=CC(O)C(C)C=C(C)C=C(C)C=CC(O)C1C (stereo not shown) [compound 6]
1321N1 astrocytoma cells
  IC50: 19.6 ± 4 nM
